The target in one experiment is Acetylcholinesterase (Electrophorus electricus, UniProt O42275). Kind of experiment: Inhibition of electric eel AChE.
Another experiment has as its target Butyrylcholinesterase (Equus caballus, UniProt Q9N1N9). In words: Inhibition of horse serum BChE.
Experiment [1] is described as follows: Selectivity for horse serum BChE over electric eel AChE.
[2] abbreviates: read-out: -Log IC50 (converted).

Butyrylcholinesterase, sequence (Q9N1N9 whole entry): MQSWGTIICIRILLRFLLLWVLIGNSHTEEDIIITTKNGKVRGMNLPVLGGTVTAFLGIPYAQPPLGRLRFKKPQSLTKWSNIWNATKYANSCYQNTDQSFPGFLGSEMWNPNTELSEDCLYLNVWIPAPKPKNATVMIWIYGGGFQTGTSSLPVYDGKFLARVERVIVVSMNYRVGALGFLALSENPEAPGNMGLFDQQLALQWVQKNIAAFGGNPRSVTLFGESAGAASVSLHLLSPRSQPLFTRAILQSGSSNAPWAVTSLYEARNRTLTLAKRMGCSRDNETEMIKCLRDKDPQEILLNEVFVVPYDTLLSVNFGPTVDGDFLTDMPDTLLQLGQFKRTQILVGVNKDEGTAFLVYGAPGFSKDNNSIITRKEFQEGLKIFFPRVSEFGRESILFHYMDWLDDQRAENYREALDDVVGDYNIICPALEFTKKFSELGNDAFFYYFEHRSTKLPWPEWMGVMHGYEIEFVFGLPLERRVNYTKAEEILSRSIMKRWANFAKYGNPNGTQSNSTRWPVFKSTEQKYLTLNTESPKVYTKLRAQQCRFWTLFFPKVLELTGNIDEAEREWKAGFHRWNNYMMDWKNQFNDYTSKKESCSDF
Acetylcholinesterase, sequence (O42275 whole entry): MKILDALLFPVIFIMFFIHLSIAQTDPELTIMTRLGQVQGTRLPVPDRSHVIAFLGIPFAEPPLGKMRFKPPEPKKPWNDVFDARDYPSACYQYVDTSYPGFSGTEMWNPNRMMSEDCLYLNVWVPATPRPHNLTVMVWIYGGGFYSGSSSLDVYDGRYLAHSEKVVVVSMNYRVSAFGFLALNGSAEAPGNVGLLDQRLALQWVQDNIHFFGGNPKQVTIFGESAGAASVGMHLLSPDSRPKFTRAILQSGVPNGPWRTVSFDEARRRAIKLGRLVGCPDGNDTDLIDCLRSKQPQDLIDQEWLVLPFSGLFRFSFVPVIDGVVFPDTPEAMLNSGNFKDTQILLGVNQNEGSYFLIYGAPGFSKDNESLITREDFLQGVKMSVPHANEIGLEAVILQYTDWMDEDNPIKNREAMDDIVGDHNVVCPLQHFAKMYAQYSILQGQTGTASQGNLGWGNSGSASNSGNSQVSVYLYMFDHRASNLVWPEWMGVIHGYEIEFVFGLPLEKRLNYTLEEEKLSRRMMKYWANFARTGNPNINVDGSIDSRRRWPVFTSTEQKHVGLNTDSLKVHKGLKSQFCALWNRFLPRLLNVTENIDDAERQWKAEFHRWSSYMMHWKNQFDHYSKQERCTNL

A word on the IC50: it is the concentration at which inhibition is half-maximal. With `N=c1c2ccccc2nc2n1CCC2`, the results for the IC50 on Acetylcholinesterase, on Butyrylcholinesterase (setting [2]) and on Butyrylcholinesterase (read-out: IC50) were 13200 nM, 716 nM and 7200 nM, respectively. The Ratio IC50 in experiment [1] was 1.8.

In the case of `c1ccc2/c(=N/CCCCCCC/N=c3\c4ccccc4nc4n3CCCCC4)n3c(nc2c1)CCCCC3`, the IC50 against Acetylcholinesterase is 40 nM; at Butyrylcholinesterase (read-out: IC50) it was 24 nM. The Ratio IC50 in experiment [1] was 1.6.

In the case of `CCCC/N=c1/c2ccccc2nc2n1CCC2`, the IC50 against Acetylcholinesterase is 9500 nM; at Butyrylcholinesterase (read-out: IC50), 5500 nM. Besides, in experiment [1], the Ratio IC50 amounted to 1.7.

As for `Clc1ccc2/c(=N/CCCCCCC/N=c3\c4ccc(Cl)cc4nc4n3CCC4)n3c(nc2c1)CCC3`, the results for the IC50 on Acetylcholinesterase and on Butyrylcholinesterase (read-out: IC50) were 59 nM and 61 nM, respectively. In addition, in experiment [1], the Ratio IC50 stood at 1.

`c1ccc2/c(=N/CCCCCCCC/N=c3/c4ccccc4nc4n3CCCC4)n3c(nc2c1)CCCC3`: the IC50 against Acetylcholinesterase was 37 nM; on Butyrylcholinesterase (read-out: IC50), 7.6 nM. Further, the Ratio IC50 in experiment [1] was found to be 4.9.

Turning to `c1ccc2/c(=N/CCCCCCCC/N=c3/c4ccccc4nc4n3CCCCCC4)n3c(nc2c1)CCCCCC3`, the IC50 on Acetylcholinesterase was 14400 nM; on Butyrylcholinesterase (read-out: IC50), 76 nM. Besides, the Ratio IC50 in experiment [1] is 189.

As for `N=c1c2ccccc2nc2n1CCCCCC2`, the IC50 came to 14600 nM against Acetylcholinesterase and 3000 nM at Butyrylcholinesterase (read-out: IC50). Also, the Ratio IC50 in experiment [1] came out at 4.9.

As for `c1ccc2/c(=N/CCCCCCCC/N=c3/c4ccccc4nc4n3CCC4)n3c(nc2c1)CCC3`, the results for the IC50 on Acetylcholinesterase and on Butyrylcholinesterase (read-out: IC50) were 58 nM and 4.8 nM, respectively. The Ratio IC50 in experiment [1] stood at 12.

With `c1ccc2/c(=N/CCCCCCC/N=c3\c4ccccc4nc4n3CCC4)n3c(nc2c1)CCC3`, the IC50 came out at 79 nM at Acetylcholinesterase and 88 nM at Butyrylcholinesterase (read-out: IC50). Also, in experiment [1], the Ratio IC50 was determined as 0.9.

As for `c1ccc2/c(=N/CCCCCCCC/N=c3/c4ccccc4nc4n3CCCCC4)n3c(nc2c1)CCCCC3`, the IC50 at Acetylcholinesterase was 1280 nM; at Butyrylcholinesterase (read-out: IC50) it was 13 nM. In addition, the Ratio IC50 in experiment [1] came out at 98.

Regarding `Clc1ccc2c(c1)N=C1CCCN1C2NCCCCCCCC/N=c1/c2ccc(Cl)cc2nc2n1CCC2` (stereo unspecified), the IC50 against Acetylcholinesterase came to 50.2 nM; on Butyrylcholinesterase (read-out: IC50) it was 45.4 nM. Moreover, the Ratio IC50 in experiment [1] worked out at 1.1.

As for `CCCC/N=c1/c2ccc(Cl)cc2nc2n1CCC2`, the IC50 on Butyrylcholinesterase (read-out: IC50) was determined as 2300 nM. Besides, the Ratio IC50 in experiment [1] was 1.7.

For `CC(=O)/N=c1/c2ccccc2nc2n1CCC2`, the figures for the half-inhibitory concentration (IC50) against Acetylcholinesterase, at Butyrylcholinesterase (setting [2]) and on Butyrylcholinesterase (read-out: IC50) were 115000 nM, 428000 nM and 204000 nM, respectively. The Ratio IC50 in experiment [1] was found to be 0.6.

As to `c1ccc2/c(=N/CCCCCCC/N=c3\c4ccccc4nc4n3CCCC4)n3c(nc2c1)CCCC3`, the results for the IC50 at Acetylcholinesterase and on Butyrylcholinesterase (read-out: IC50) were 77 nM and 8.5 nM, respectively. The Ratio IC50 in experiment [1] stood at 9.

Turning to `c1ccc2/c(=N/CCCCCCC/N=c3\c4ccccc4nc4n3CCCCCC4)n3c(nc2c1)CCCCCC3`, the IC50 stood at 65 nM on Acetylcholinesterase and 27 nM on Butyrylcholinesterase (read-out: IC50). Moreover, the Ratio IC50 in experiment [1] was found to be 2.4.

(Values after ChEMBL document CHEMBL1149472, “Homobivalent quinazolinimines as novel nanomolar inhibitors of cholinesterases with dirigible selectivity toward butyrylcholinesterase” (J Med Chem, 2006).)
